From patent publication US20240342204A1, “METHOD OF TREATING VETERINARY VIRAL DISEASES” (Intervet Inc., priority 2021, published 2024)
pEC50: −log10 of the molar value. Where two headings read alike, the source gives them in different places.

Experiments:
[1] = system: Feline Infectious Peritonitis Virus (FIPV) strain 79-1146; experiment: CPE antiviral assay for FIPV in Crandell-Rees Feline Kidney (CrFK) cells; assay type: cell-based
[2] = system: feline calicivirus (FCV) field strain 255; experiment: CrFK cell based antiviral activity against Feline Calicivirus (CPE, CellTiterGlo); settings: 48 h, read-out: ED50 of NHC against Feline calicivirus
Method: Example 2 CrFK Cell Based Antiviral Activity of NHC Against Feline Calicivirus (FCV)
Monolayers of Crandell-Rees Feline Kidney (CrFK) cells grown in 96-well plates (Greiner Cat #655090) in 100 μl/well M6B8 medium supplemented with 5% FCS and 0.15% NaHCO3 at a density of 2×10^5 cells/ml were infected with feline calicivirus (FCV) field strain 255 at multiplicities of infection of 0.01 and 0.001. NHC was added in ⅓ serial dilutions to the infected cells to yield a test concentration range of from 10 μM to 0.000508 μM and cultures were incubated for up to 48 hours at 37° C. and 5% C02. The extent of viral replication was assessed by determining the degree of FCV-induced cytopathic effect (CPE) using the CellTiterGlo® Luminescent Cell Viability Assay (Promega Cat #G7571) by adding the reagent 1:1 (v/v) to the culture plates that have been equilibrated to room temperature for 30 minutes. Plates were incubated for 10 minutes at room temperature and subsequently read for luminescence in a Biotek Cytation5. The effective concentration of NHC that reduced FCV replication by 50% (EC50) was calculated in a 4-parameter nonlinear regression model using GraphPad Prism 8.

[3] = system: Porcine rotavirus A strain of serotype G5P7; experiment: Anti-porcine rotavirus immunofluorescent assay in MA-104 cells, strain G5P7; assay type: cell-based; settings: MA104, 72 h, read-out: EC50, replication of porcine rotavirus reduced by half, G5P7 strain
Method: (§1) Example 3 Anti-Porcine Rotavirus Activity of β-D-N(4)-Hydroxycytidine (NHC)
(§2) The anti-rotaviral activity of NHC against swine rotaviruses was tested in a cell culture-based assay. MA-104 (Rhesus monkey kidney tissue) cells were cultured and harvested according to standard procedures. The harvested MA-104 cell suspension was seeded onto 96-well plates (Greiner CELLSTAR® black, Sigma-Aldrich® M0562) in 200 μl/well M6B8 medium with 5% FBS at a density of 3×10^4 cells/mL. After 4 days of culturing, the monolayers were washed and the cells were infected with rotavirus A by adding 100 μl/well of 3630 TCID50/mL Porcine rotavirus A strain of serotype G5P7 (ATCC, VR-892) or strain G9P7 (MAH Worthington, USA). […] Replication inhibition of the Rotavirus A strains by NHC was quantified using a mouse-anti-Rotavirus A strain-specific monoclonal antibody (Ingenasa, #1JF10) followed by FITC-fluorochrome conjugated goat-anti-mouse antibody (Nordic) and DAPI (Sigma Aldrich) nuclear staining in an immunofluorescent assay. The extent of immunofluorescence was quantified as relative fluorescence units (RFU) at 485 nm excitation and 528 nm emission using a Cytation 5 cell imaging multimode reader and Gen5 software version 3.10 (Agilent BioTek). […]

[4] = system: Porcine rotavirus A strain G9P7; experiment: Anti-porcine rotavirus immunofluorescent assay in MA-104 cells, strain G9P7; assay type: cell-based; settings: MA104, 72 h, 3 days, immunofluorescence (FIG. 3b), read-out: EC50, replication of porcine rotavirus reduced by half, G9P7 strain
Method: as §1, §2

[5] = system: swine influenza virus strain A/swine/Belgium/113/2013 (H3N2); experiment: organism not typed; assay type: cell-based; settings: MDCK, 24 h, read-out: EC50, replication of swine influenza virus reduced by half, H3N2 strain
[6] = system: swine influenza virus strain A/swine/MN/A01483170/2014 (H1N1 pdm); experiment: microbe, parasite or virus in culture; assay type: cell-based; settings: H1N1, MDCK, in Sus scrofa, 24 h, read-out: EC50, replication of swine influenza virus reduced by half, H1N1pdm strain
[7] = system: cytopathic bovine viral diarrhea virus (BVDV) RNA; settings: dose-dependent inhibition of BVDV RNA production; read-out: 90% effective concentration (EC90), production of cytopathic BVDV RNA; cited from earlier work
[8] = system: bovine viral diarrhea virus (BVDV); settings: BVDV virus yield; read-out: EC90, virus yield assays; cited from earlier work
[9] = system: feline infectious peritonitis (FIP) virus; settings: tissue culture and experimental cat infection studies; cited from earlier work
[10] = FIPV strain 79-1146 infected CRFK cells, 96 hrs, CPE by CellTiterGlo, read-out: EC 50

CCC(CC)COC(=O)[C@H](C)N[P@](=O)(OC[C@H]1O[C@@](C#N)(c2ccc3c(N)ncnn23)[C@H](O)[C@@H]1O)Oc1ccccc1 [Remdesivir] gave a pEC50 ([1]; Alphacoronavirus 1, CRFK, 96 h) of 6.01 to 6.13.

In the case of O=c1nc(NO)ccn1[C@@H]1O[C@H](CO)[C@@H](O)[C@H]1O [NHC, 1-((2R,3R,4S,5R)-3,4-dihydroxy-5-(hydroxymethyl)tetrahydrofuran-2-yl)-4-(hydroxyamino)pyrimidin-2(1H)-one], the pEC50 ([1]; Alphacoronavirus 1, FIPV strain 79-1146 infected CRFK cells, 96 hrs, CPE by CellTiterGlo, read-out: EC 50) was 6.43 to 6.48, the “Antiviral dose response against FIPV infected feline kidney cells (in words)” value ([1]; FIG. 1, viral induced CPE) was “protective against viral induced CytoPathic Effect (CPE) in a dose dependent manner” and the pEC50 [2] was 5.42. The pEC50 [3] was 5.59, the pEC50 [4] was 5.72 and the pEC50 [5] was 5.89. The pEC50 [6] was 5.28, the EC90 [7] was 5400 nM and the EC90 [8] was 2000 nM.

CC(C)C[C@H](NC(=O)OCc1ccccc1)C(=O)N[C@@H](CC1CCNC1=O)C(O)S(=O)(=O)O (stereo partly shown) [GC-376] showed a pEC50 [1, 10] of 5.52 to 5.74.

In the case of C[C@@]1(O)[C@H](O)[C@@H](CO)O[C@H]1n1ccc2c(N)ncnc21 [MK-0608], the pEC50 [1, 10] was under 4.52.

For N#C[C@@]1(c2ccc3c(N)ncnn23)O[C@H](CO)[C@@H](O)[C@H]1O [GS-441524], the “Inhibition of FIP virus (in words)” value [9] is given as “strongly inhibit”.
